Laboratory results as given in article PMC3199867, “Targeting surface nucleolin with multivalent HB-19 and related Nucant pseudopeptides results in distinct inhibitory mechanisms depending on the malignant tumor cell type” (BMC Cancer, 2011).
pIC50: −log10 of the molar value.

What was measured:
TIII = test: Cell growth / proliferation (viable cell number); type: cell-based, murine; settings: mean of at least 2 independent experiments; for % Growth inhibition After 3 days: N6 or N7 20 μM, viable cell number vs untreated control; for % Inhibition of cell Proliferation: after 3 days of culture, vs untreated control
Protocol: (§1) Human breast (MDA-MB-231, MDA-MB-435 [37]), prostate (LNCaP, from American Type Culture Collection, ATCC, Rockville, MD), and cervical (HeLa) epithelial cancer cells were grown in DMEM-glutamax medium (Gibco Invitrogen, Cergy-Pontoise, France) containing GlutaMAX™, 4.5 g/l glucose and supplemented with 10% heat-inactivated (56°C for 30 min) fetal bovine serum (FBS; Hyclone, Thermo Fisher Scientific, Inc). Human SW480 cells are derived from a grade 3-4 colon carcinoma, while the highly metastatic counterpart SW620 is established from the lymph node of a person. Both SW480 and SW620 cells (obtained from Francis Raul, IRCAD) are highly tumorigenic in nude mice. They were cultured in D-MEM, 10% FCS. The murine melanoma TIII cell line was obtained from Armelle Prévost-Blondel. Murine T29 lymphoma cells, obtained from Philippe Kastner (CNRS, Strasbourg), have been established from Ik^L/L tumors from mice carrying a hypomorphic mutation (Ik^L/L) in the Ikaros gene encoding a transcription factor that regulates lymphocyte differentiation, and acts also as a tumor suppressor in T lymphocytes. The T29 cells were cultured in RPMI medium containing 25 mM Hepes pH 7.6, 1 mM sodium pyruvate, and 10% FCS. Human leukemia cell lines, Jurkat (acute T cell leukemia), HuT 78 (cutaneous T lymphocyte), RAJI (Burkitt lymphoma), and HL60 (promyelocytic leukemia) were cultured in RPMI-1640 medium (Gibco) containing GlutaMAX™, and supplemented with 10% heat-inactivated FBS as described before. The wild-type Chinese hamster ovary cell line (CHO K1) was purchased from American Type Culture Collection (ATCC; Rockville, MD). The CHO LRP1-null cell line (CHO-13-5-1) was kindly provided by D. Strickland [47]. They were cultured in Ham's F12K medium. All cells were cultured with 10% (v/v) heat inactivated (56°C, 30 min) fetal bovine serum (FBS) (Roche Molecular Biochemicals, Indianapolis, IN) and 50 international units/mL penicillin-streptomycin (Invitrogen). Cell death was monitored conveniently by uptake of the trypan blue dye due to plasma membrane permeability of dying and/or dead cells.

HL60 [1] = test: Cell growth (viable cell number); type: cell-based, human; settings: N6 or N7 20 μM, viable cell number vs untreated control, mean of at least 2 independent experiments
Protocol: as §1

HeLa [2] = test: Cell growth (viable cell number); type: cell-based, human; settings: N6 or N7 20 μM, viable cell number vs untreated control, mean of at least 2 independent experiments
Protocol: as §1

HuT 78 = test: Cell growth (viable cell number); type: cell-based, human; settings: N6 or N7 20 μM, viable cell number vs untreated control, mean of at least 2 independent experiments
Protocol: as §1

Jurkat [3] = test: Cell growth (viable cell number); type: cell-based, human; settings: N6 or N7 20 μM, viable cell number vs untreated control, mean of at least 2 independent experiments
Protocol: as §1

LNCaP [4] = test: Cell growth (viable cell number); type: cell-based, human; settings: N6 or N7 20 μM, viable cell number vs untreated control, mean of at least 2 independent experiments
Protocol: as §1

MDA-MB 231 [5] = test: Cell growth (viable cell number); type: cell-based, human; settings: N6 or N7 20 μM, viable cell number vs untreated control, mean of at least 2 independent experiments
Protocol: as §1

MDA-MB 435 [6] = test: Cell growth (viable cell number); type: cell-based, human; settings: N6 or N7 20 μM, viable cell number vs untreated control, mean of at least 2 independent experiments
Protocol: as §1

RAJI [7] = test: Cell growth (viable cell number); type: cell-based, human; settings: N6 or N7 20 μM, viable cell number vs untreated control, mean of at least 2 independent experiments
Protocol: as §1

T29 = test: Cell growth / multiplication (viable cell number); type: cell-based, murine; settings: for % Growth inhibition After 3 days: T29, N6 or N7 20 μM, viable cell number vs untreated control, mean of at least 2 independent experiments; for pIC50: T29 cells, 0-20 μM, number of viable cells at 3 days post-treatment, read-out: Cell number: IC50 72 hours post-passage; for multiplication index of cells at day 3 compared to day 0: T29 seeded at 150,000 cells/ml, 10 μM (hexavalent), triplicate, control 17.5-fold
Protocol: as §1
Figure 7 HB-19 and related multivalent Nucant pseudopeptides induce cell death associated with internucleosomal DNA fragmentation. A. Inhibition of cell multiplication by HB-19 and related multivalent Nucant pseudopeptides. […] Cell cultures (in triplicate) were monitored for viable cell number daily for 3 days. The histograms show the mean number of cells/ml ± SD of triplicate samples. The multiplication index of cells at day 3 compared to day 0 (the day of seeding) is given at the top of histogram. At 3 days post passage of T29 cells, the cell multiplication index of cells is 17.5-fold compared to 8.9-, 7.2-, 2.2-, and 1.7-fold in the presence of treatment with HB-19, N3, N6, and N7, respectively. B. N7 inhibits T29 cell multiplication in a dose dependent manner. T29 cells seeded at 100,000/ml in 2 ml in the absence (0 μM) or presence of N7 at various concentrations 2.5, 5, 10 and 20 μM were cultured for 3 days and the number of viable cells was determined at day 1, 2, and 3 post-seeding. The ordinate gives the cell number/ml (the mean of 2 samples) in each culture at day 1, 2, and 3 post-seeding. C. Partial cleavage of surface/cytoplasmic nucleolin. T29 cells were cultured for 45 min with 0 (for control; lanes C), 2 and 10 μM of N6 before preparation of cytoplasmic (that contains both surface and cytoplasmic nucleolin) and nuclear extract and analysis by immunoblotting using rabbit polyclonal antibodies that are directed against the first 26 (panel anti-Nt Ab) and the last 16 amino acids (panel anti-Ct Ab) of human nucleolin, respectively. The nuclear extracts were analyzed by immunoblotting using anti-Nt Ab (Methods). […]

HL60 [8] = test: Cell death (trypan blue uptake); type: cell-based, human; settings: HL60, freshly passaged, N6 or N7 20 μM, mean of at least 2 independent experiments
Protocol: as §1

HeLa [9] = test: Cell death (trypan blue uptake); type: cell-based, human; settings: subconfluent, N6 or N7 20 μM, mean of at least 2 independent experiments
Protocol: as §1

Jurkat [10] = test: Cell death (trypan blue uptake); type: cell-based, human; settings: freshly passaged, N6 or N7 20 μM, mean of at least 2 independent experiments
Protocol: as §1

LNCaP [11] = test: Cell death (trypan blue uptake); type: cell-based, human; settings: subconfluent, N6 or N7 20 μM, mean of at least 2 independent experiments
Protocol: as §1

MDA-MB 231 [12] = test: Cell death (trypan blue uptake); type: cell-based, human; settings: MDA-MB 231, subconfluent, N6 or N7 20 μM, mean of at least 2 independent experiments
Protocol: as §1

MDA-MB 435 [13] = test: Cell death (trypan blue uptake); type: cell-based, human; settings: MDA-MB 435, subconfluent, N6 or N7 20 μM, mean of at least 2 independent experiments
Protocol: as §1

RAJI [14] = test: Cell death (trypan blue uptake); type: cell-based, human; settings: freshly passaged, N6 or N7 20 μM, mean of at least 2 independent experiments
Protocol: as §1

SW480 = test: Cell death (trypan blue uptake); type: cell-based, human; settings: SW480, subconfluent, N6 or N7 20 μM, mean of at least 2 independent experiments
Protocol: as §1

SW620 = test: Cell death (trypan blue uptake); type: cell-based, human; settings: SW620, subconfluent, N6 or N7 20 μM, mean of at least 2 independent experiments
Protocol: as §1

| Substance | % Growth inhibition After 3 days (TIII) [%] | % Growth inhibition After 3 days (HL60 [1]) [%] | % Growth inhibition After 3 days (HeLa [2]) [%] | % Growth inhibition After 3 days (HuT 78) [%] | % Growth inhibition After 3 days (Jurkat [3]) [%] | % Growth inhibition After 3 days (LNCaP [4]) [%] | % Growth inhibition After 3 days (MDA-MB 231 [5]) [%] | % Growth inhibition After 3 days (MDA-MB 435 [6]) [%] | % Growth inhibition After 3 days (RAJI [7]) [%] | % Growth inhibition After 3 days (T29) [%] | pIC50 (T29) | multiplication index of cells at day 3 compared to day 0 (T29) [fold] | % Cell death After 24 hours (HL60 [8]) [%] | % Cell death After 24 hours (HeLa [9]) [%] | % Cell death After 24 hours (Jurkat [10]) [%] | % Cell death After 24 hours (LNCaP [11]) [%] | % Cell death After 24 hours (MDA-MB 231 [12]) [%] | % Cell death After 24 hours (MDA-MB 435 [13]) [%] | % Cell death After 24 hours (RAJI [14]) [%] | % Cell death After 24 hours (SW480) [%] | also measured |
| --- | --- | --- | --- | --- | --- | --- | --- | --- | --- | --- | --- | --- | --- | --- | --- | --- | --- | --- | --- | --- | --- |
| Ac-KAKPGKAKPGKAKPG-NH2 [Nucant N7, Presents hexavalently the pseudo-tripeptide Lysψ(CH2N)-Pro-Arg coupled to a similar template as in HB-19] | 55 | 65 | 46 | 62 | 80 | 88 | 92 | 58 | 75 | 85 | 5.10 | 1.7 | 35 | < 5 | 45 | < 5 | < 5 | < 5 | 42 | < 5 | % Cell death After 24 hours (SW620): < 5% |
| Ac-Lys-Aib-Gly-Lys-Aib-Gly-Lys-Aib-Gly-Lys-Aib-Gly-Lys-Aib-Gly-Lys-Aib-Gly-CONH2 [Nucant N6, Presents hexavalently the pseudo-tripeptide Lysψ(CH2N)-Pro-Arg coupled to the polypeptide template containing Aib] | 55 | 65 | 46 | 62 | 80 | 88 | 92 | 58 | 75 | 85 | 5.10 | 2.2 | 35 | < 5 | 45 | < 5 | < 5 | < 5 | 42 | < 5 | % Inhibition of cell Proliferation (TIII; 2.5 μM): 12%; % Inhibition of cell Proliferation (TIII; 5 μM): 20%; % Inhibition of cell Proliferation (TIII; 10 μM): 32%; % Inhibition of cell Proliferation (TIII; 20 μM): 45%; % Cell death After 24 hours (SW620): < 5% |
